Experimental data as given in patent US8883856B2, “Compositions and methods for the treatment of inflammatory diseases using topoisomerase inhibitors” (priority 2000, dated 2014).

Assays:
[1] = system: caspase 3; assay: Caspase 3 activation in neutrophils (caspACE assay system); assay type: cell-based, human
Text: The inflammation associated with many forms of arthritis is thought to arise from the presence of large numbers of immune cells, such as neutrophils, in the synovial joints of humans. The extended inflammation associated with crystal induced arthritis arises from the interaction of neutrophils with crystals in the synovial joint. One reason the extended duration of the inflammation in this disease may be due to the inhibition of neutrophil apoptosis by crystals. This inhibition may result in the neutrophils remaining in the joint for extended periods. Compounds that overcome this crystal induced suppression of neutrophil apoptosis therefore allow the more rapid clearance of these cells from the joint with the appropriate abatement of inflammation. The process of apoptosis involves the endonuclease driven cleavage of DNA into fragments which may be visualized as a ladder of bands in an agarose gel electrophoresis experiment. Other assays that may be used include caspase 3 quantitation or measurements of cytoplasmic DNA concentration. […] Agents that inhibit caspase activation levels or reduce cytoplasmic DNA are pro-survival (potentially inflammatory) and agents that promote are pro-apoptotic and anti-inflammatory. The use of these methods and their role in neutrophil affected inflammation is described in detail in Tudan et al. J Rheumatol. 27 p 2463-72. 2000.
Methods: Agarose gel banding/laddering of 180 base pairs: Neutrophils were separated from fresh human blood by standard methods (dextran sedimentation and ficoll paque centrifugation) and suspended in buffer at a concentration of 1×10^6 cells/ml. The cells were then incubated with crystals of calcium pyrophosphate dihydrate (CPPD) for 1 hours at 37° C. The cells were then incubated with or without camptothecin (0.1 uM) for 4 hours at 37° C. Neutrophil aliquots (1×10^6 cells) from different conditions were resuspended in 480 μl of lysis buffer (0.6% SDS, 10 mM Tris, 1 mM EDTA (pH 7.0)) and after vigorous mixing were allowed to sit on ice for 20 min after addition of 120 μl of 5M NaCl. In caspase 3 and DNA fragmentation assays a milder detergent (Triton) was used to lyse only the plasma membrane of the cells so that cytoplasmic contents (caspase 3 or DNA fragments) could be assayed. Samples were sedimented at 14,000 rpm at 4° C. for 20 min. The pellet was dried and resuspended in phenol:chloroform. Four hundred fifty μl of the upper phase was added to a new tube, which was then charged with 950 μl of […] and held at −20° C. for 10 min. The DNA was sedimented at 14,000 rpm (4° C.) and carefully washed in 75% ethanol without disturbing the pellet. The DNA was dried at 37° C. and then resuspended in 20 μl sample buffer (50% TBE with 1 μl of 1 ng/ml RNase A (Pharmacia)). The samples were vortexed and allowed to stand at 37° C. for 10 min. Five μl of loading dye (20% Ficoll Paque (Pharmacia), 0.1% bromophenol blue, 0.1% xylene cyanole) was added. Electrophoresis was carried out in 2% agarose at 80 mA, and the gel was then stained with ethidium bromide (Pharmacia) and photographed under U.V. illumination.
Caspase 3 activation was assayed using a commercial kit for this enzyme (caspACE assay system, Promega Scientific) and cyotplasmic DNA was assayed using a commercial kit (Cell death detection ELISA-Boehringer—Mannheim).

[2] = system: chorioallantoic membrane of the chick embryo; assay: Angiogenesis in the chick chorioallantoic membrane (CAM assay); assay type: in vivo; details: for number of eggs (CAM's) with antiangiogenic activity None (score 0) / number of eggs (CAM's) with antiangiogenic activity Partial (score 1-2) / number of eggs (CAM's) with antiangiogenic activity Maximal (score 3): 48 hours
Text: Sheets of sterile waxed paper were placed onto the window that was created in the air space and were used to prevent contamination and dehydration of the egg contents. These sheets, measuring 4 cm×4 cm, were sterilized by spraying them with 70% ethanol and allowing them to dry in the laminar flow hood. […] Using 70% ethanol and Kimwipes, the entire eggshell was wiped down to help clean and sanitize the outside of the egg. Inside a laminar flow hood, the egg was held with the blunt side up and a hole was made in the blunt end of the egg by carefully cracking the shell with the end of forceps. The shell remnants were gently removed with forceps to form a hole in the blunt end. This circular hole was made as large as 2 to 3 cm in diameter without damaging the inner membrane. Once the hole was created in the shell, the inner shell membrane (which houses the egg contents) was gently torn and removed using the forceps, taking care not to damage the chorioallantoic membrane (CAM) (which houses the yolk and developing chick embryo). The hole was then covered with the sheet of sterilized parafilm wax paper by gently stretching the parafilm and then placing it around the hole. The egg was then placed in the egg rack in the incubator (37° C.) and positioned in such a way as to prevent rotation. After 6 days each egg was removed one by one from the incubator (blunt side up), and the parafilm covering the window was removed for direct access to the CAM, which originates from the hind gut of the embryo. The drug-loaded polymer was placed onto the growing capillary bed of the CAM. The egg contents were then resealed with the parafilm sheet and placed back into the 37° C. incubator. […] The values of the avascular scale describe the following: […]

[3] = system: stromelycin gene; assay: IL-1 induced stromelycin gene expression in chondrocytes; assay type: cell-based, calf; details: for stromelysin expression: 1×10^−6 M
Text: This assay measures the levels of RNA for the two metalloproteinases, collagenase and stromelysin. Over-expression of these genes results in excessive synthesis and secretion of these two enzymes from articular chondrocytes and may represent part of the pathophysiology of rheumatoid arthritis. Agents that inhibit over-expression of collagenase and stromelysin can be antiarthritc agents. […] Proteoglycan gene expression is part of the normal physiology of chondrocytes.
Primary chondrocyte culture was freshly isolated from calf cartilage. The cells were plated (at 2.5×10^6/mL) in 100×20 mm culture dishes and incubated in Ham's F12 medium containing 5% fetal bovine serum (FBS) overnight at 37° C. The cells were starved with serum-free medium overnight. […] Then IL-1 (20 ng/mL) was added to each plate and the plates were incubated for an additional 18 hours. Total RNA was isolated by the acidified guanidine isothiocyanate method and subjected to electrophoresis on a denatured gel. Denatured RNA samples (15 ug) were analyzed by gel electrophoresis in a 1% denaturing gel, transferred to a nylon membrane, and hybridized respectively with the ^32P-labelled collagenase cDNA probe, ^32P-labelled stromelycin cDNA probe, ^32P-labelled proteoglycan cDNA probe and ^32P-labelled glyceraldehyde phosphate dehydrogenase (PAGDH) cDNA. The PAGDH levels acted as an internal standard to ensure roughly equal loading. The experimental results on X-ray films were scanned and analyzed with HP ScanJet.

[4] = summary over all concentrations tested in PCL or PCL-MePEG pellets

| SMILES | caspase 3 activation in neutrophils [1] | number of eggs (CAM's) with antiangiogenic activity None (score 0) ([2]; 1.0% w/w in PCL pellet) | number of eggs (CAM's) with antiangiogenic activity Partial (score 1-2) ([2]; 1.0% w/w in PCL pellet) | number of eggs (CAM's) with antiangiogenic activity None (score 0) ([2]; 4.0% w/w in PCL pellet) | number of eggs (CAM's) with antiangiogenic activity Partial (score 1-2) ([2]; 4.0% w/w in PCL pellet) | inhibition of angiogenesis in the CAM, in words [2, 4] | IL-1 induced stromelycin gene expression ([3]; 1×10^−5 M) | number of eggs (CAM's) with antiangiogenic activity Partial (score 1-2) ([2]; 0.5% w/w in PCL pellet) | number of eggs (CAM's) with antiangiogenic activity Partial (score 1-2) ([2]; 2.0% w/w in PCL pellet) | number of eggs (CAM's) with antiangiogenic activity Partial (score 1-2) ([2]; 5.0% w/w in PCL pellet) | stromelysin expression [3] | also measured |
| --- | --- | --- | --- | --- | --- | --- | --- | --- | --- | --- | --- | --- |
| CC1(C)CCC2=C(O1)c1ccccc1C(=O)C2=O [beta-lapachone] | induced an increase in the activation of caspase 3 levels | 4 | 2 | 4 | 11 | inhibited angiogenesis in almost all CAM's | almost completely inhibited |  |  |  |  | number of eggs (CAM's) with antiangiogenic activity Maximal (score 3) ([2]; 4.0% w/w in PCL pellet): 6; inhibition of angiogenesis in the CAM, in words ([2]; 6% w/w in PCL): partial to full inhibition of angiogenesis; number of eggs (CAM's) with antiangiogenic activity Partial (score 1-2) ([2]; 60% in PCL pellet as printed): 10 |
| COc1cccc2c1C(=O)c1c(O)c3c(c(O)c1C2=O)C[C@@](O)(C(=O)CO)C[C@@H]3O[C@H]1C[C@H](N)[C@H](O)[C@H](C)O1 [doxorubicin] | induced an increase in the activation of caspase 3 levels |  |  |  | 4 | partially inhibited angiogenesis in all but one CAM | completely inhibited | 5 | 20 | 3 | partial inhibition | number of eggs (CAM's) with antiangiogenic activity None (score 0) ([2]; 2.0% w/w in PCL pellet): 1; inhibition of angiogenesis in the CAM, in words ([2]; 5% (w/w to PCL)): partial to full inhibition of angiogenesis |
| COc1cc([C@@H]2c3cc4c(cc3[C@@H](O[C@@H]3O[C@@H]5CO[C@@H](C)O[C@H]5[C@H](O)[C@H]3O)[C@H]3COC(=O)[C@H]23)OCO4)cc(OC)c1O [etoposide] | induced an increase in the activation of caspase 3 levels |  |  | 2 | 5 | inhibited angiogenesis in almost all CAM's treated | inhibited |  |  |  |  | number of eggs (CAM's) with antiangiogenic activity Partial (score 1-2) ([2]; 8.0% w/w in PCL pellet): 5; number of eggs (CAM's) with antiangiogenic activity Maximal (score 3) ([2]; 15.0% w/w in PCL pellet): 4; number of eggs (CAM's) with antiangiogenic activity Partial (score 1-2) ([2]; 15.0% w/w in PCL pellet): 9; number of CAM's showing full inhibition ([2]; all etoposide pellets (4%, 8%, 15% PCL; 10% PCL-MePEG)): five |
| CC1=CC(=O)c2ccccc2C1=O [menadione] |  |  |  |  |  | partial inhibition of angiogenesis in a number of CAM's | inhibited |  | Necrosis |  |  | generalized cytotoxicity in the CAM ([2]; drug-loaded PCL pellets): some evidence of necrosis in non-capillary cells and membrane thinning |
| CC1=CC(=O)c2c(O)cccc2C1=O [plumbagin] |  |  | Necrosis |  |  | partial inhibition of angiogenesis in a number of CAM's | completely inhibited |  |  |  | partial inhibition | generalized cytotoxicity in the CAM ([2]; in vivo): some evidence of necrosis in non-capillary cells and membrane thinning |
| CC[C@@]1(O)C(=O)OCc2c1cc1n(c2=O)Cc2cc3ccccc3nc2-1 [camptothecin] | induced high levels of caspase 3 activation | 4 | 6 |  |  | extensive inhibition of angiogenesis |  | 12 |  | 20 |  | number of eggs (CAM's) with antiangiogenic activity None (score 0) ([2]; 0.1% w/w in PCL pellet): 7; number of eggs (CAM's) with antiangiogenic activity Partial (score 1-2) ([2]; 0.1% w/w in PCL pellet): 1; inhibition of angiogenesis in the CAM, in words ([2]; 0.5% (w/w to PCL)): strong evidence of inhibition of angiogenesis; number of eggs (CAM's) with antiangiogenic activity Maximal (score 3) ([2]; 0.5% w/w in PCL pellet): 2; number of eggs (CAM's) with antiangiogenic activity None (score 0) ([2]; 0.5% w/w in PCL pellet): 8; number of CAM's with full or partial inhibition ([2]; 5% (w/w to PCL)): 29; number of eggs (CAM's) with antiangiogenic activity Maximal (score 3) ([2]; 5.0% w/w in PCL pellet): 9; number of eggs (CAM's) with antiangiogenic activity None (score 0) ([2]; 5.0% w/w in PCL pellet): 3; IL-1 induced stromelycin gene expression ([3]; 1×10^−7 M): almost completely inhibited |
